These results are taken from publication PMC9792986, “Synthesis and characterization of semisynthetic analogs of the antifungal occidiofungin” (Frontiers in Microbiology, 2022).

“And” between values parts separate entries of the source, which are not always exact repeats. Equal entries are not always repeated. Starred links: 1 amine or outer side, 2 acyl side, 3 side chain; linkers in the order of their positions; H or OH if unused. Non-standard residues stand in square brackets, D forms with d. Residues, ends and D or L forms follow the SMILES beside them. X3 = O=C([C@@H](N[*:1])C(O)c1ccc(O)cc1)[*:2]; X2 = CCCCCCCCCCCCNCCC(CC(=O)[*:2])N[*:1]; X1 = NC(=O)C(O)[C@H](N[*:1])C(=O)[*:2]; Dab = NCC[C@H](N)C(=O)O

The subject of series [1] is Saccharomyces cerevisiae DGY6 haploid BY4741. Put plainly: Minimum inhibitory concentration assay. It is filed as cell-based. The note with it: for fold of native compound's concentration at which completely inactive: against S. cerevisiae; for MIC: S. cerevisiae DGY6 haploid BY4741, modified CLSI M27-A3, 24 h incubation, duplicate. On the procedure:
(§1) MIC assays were performed in duplicate following a modified version of the CLSI M27-A3 protocol as previously described ([Ravichandran et al., 2019]).

The subject of series [2] is Saccharomyces cerevisiae cells. Put plainly: Fluorescent microscopy and competitive binding (uptake) assay with alkyne-occidiofungin. It is filed as cell-based. The note with it: 5 min pretreatment at 1X MIC of native occidiofungin, then 1X MIC alkyne-OCF 30 min; fluorescence microscopy. How it is done:
After 30 min, the cells were fixed then permeabilized. Click reaction was performed with azide-derivatized Alexa Fluor 488 as per the kit-supplied protocol (Click-iT EdU imaging kit; Thermo Fisher Scientific). The cells were suspended in […]® Antifade Mounting Medium and visualized with a Leica DM 6B microscope. […] The cells were then fixed, permeabilized and Click reaction was performed as previously described ([Ravichandran et al., 2019]).

Series [3] is described as follows: HPLC percentage of water at elution (polarity). In kind it is physicochemical. The note with it: chromatographic, analytical C18 (Agilent ZORBAX ODS, 5 μm, 4.6 × 250 mm); 30-min gradient from 90 to 20% water/ACN, 0.1% TFA; UV 220 nm; used as measure of polarity. How it is done:
A two-step procedure of reductive amination was used to introduce a primary or secondary amine onto the aldehyde analog. The first step of reaction involves the formation of an intermediate carbinol amine, which is then dehydrated and protonated to form an iminium ion. Subsequent reduction of this iminium ion with sodium borohydride produces an alkylated amine product. The aldehyde analog of occidiofungin was dissolved in DMSO at a concentration of 10 mg/ml. Three amines (undecylamine, dodecylamine, and DL-dihydrosphingosine) were used for reductive amination. Aldehyde analog (10 μl of DMSO stock solution; 100 μg) was mixed with 10-fold excess of an amino lipid (molar ratio) in 400 μl pure methanol. The sample was then incubated at room temperature for at least 16 h. Solid sodium borohydride (6 mg) was weighted on an analytical balance (Adventurer™ Pro AV114C, Ohaus Corporation, USA) and was directly transferred into the reaction mixture, mixed well, and was incubated at room temperature for 5 min. The reaction mixture was diluted to 1 ml with 50% ACN 0.1% TFA and was separated by HPLC using a 30-min gradient from 90 to 20% water/ACN on the analytical C18 column. HPLC solvents contained 0.1% TFA. Products that eluted between 50% and 30% water were collected and analyzed by electrospray ionization mass spectrometry (ESI-MS) on a ThermoFisher DecaXP ion trap mass spectrometer. The yield of each HPLC sample was quantified by comparing the peak area of each analog to the peak area of a 100 μg standard of occidiofungin. Electrospray ionization mass spectrometry (ESI-MS) experiments were performed using a Thermo Scientific Q Exactive Focus. Sample was loop injected (10 μl) and acetonitrile with 0.1% formic acid was used as a mobile phase at a flow rate of 600 μl/min. The Q Exactive Focus HESI source was operated in full MS in positive mode. The mass resolution was tuned to 70,000 FWHM at m/z 200. The spray voltage was set to 3.5 kV, and the sheath gas and auxiliary gas flow rates were set to 40 and 10 arbitrary units, respectively. The transfer capillary temperature was held at 300°C and the S-Lens RF level was set at 50 v. Exactive Series 2.11 /Xcalibur 4.2.47 software was used for data acquisition and processing. The alkyne occidiofungin (alkyne-OCF) used for fluorescent microscopy was synthesized as previously described ([Ravichandran et al., 2019]).

Series [4] relates to S. cerevisiae, Candida albicans, and Candida glabrata. Put plainly: MIC comparison with native occidiofungin over the yeasts tested. The note with it: against the Candida species tested and S. cerevisiae strain tested. It is filed as cell-based. How it is done: as §1
The subject of series [5] is Candida albicans ATCC 3147. Put plainly: Minimum inhibitory concentration assay. In kind it is cell-based. The note with it: C. albicans ATCC 3147; modified CLSI M27-A3; 24 h incubation; duplicate. How it is done:
as §1

The test system of series [6] is Candida glabrata ATCC 2001. Put plainly: Minimum inhibitory concentration assay. It is filed as cell-based. The note with it: C. glabrata ATCC 2001; modified CLSI M27-A3; 24 h incubation; duplicate. On the procedure:
as §1

A further series deals with G-actin. Put plainly: Pyrene labeled actin polymerization assay. In kind it is biochemical. Particulars: 5 μM compound; duplicate. How it is done:
(§2) Actin polymerization and depolymerization assays were performed using the Actin polymerization biochem kit (# BK003; Cytoskeleton, Inc. Denver, CO) following the manufacturer’s instructions with some modifications. Briefly, for the polymerization assay, G-actin stock solution was made at 0.2 mg/ml instead of 0.4 mg/ml. For the depolymerization assay, F-actin stock solution was diluted nine-fold instead of five-fold. Test compounds including phalloidin, DL-dihydrosphingosine analog, and native occidiofungin were tested at a final concentration of 5 μM. The experiments were done in duplicate.

The subject of the next series is F-actin. Put plainly: Pyrene labeled actin depolymerization assay. The note with it: 5 μM compound; duplicate. In kind it is biochemical. On the procedure:
as §2

Series [7] addresses T1, F-actin (rabbit skeletal muscle filamentous actin) (Oryctolagus cuniculus, UniProt P68135).
T1 construct: Purified rabbit skeletal muscle filamentous actin (AKF99); purchased Cytoskeleton Inc. (Denver, CO) AKF99; host or cells: rabbit skeletal muscle (tissue-purified)
Further details: method as in Ravichandran et al., 2019. Particulars: co-sedimentation, published previously, ref Ravichandran et al., 2019, cited from earlier work; for Kd: read-out: Kd value for binding to F-actin.

As for `CCCCCCCCCCCCNCCC1CC(=O)N[C@@H](CO)C(=O)N[C@@H](C(O)c2ccc(O)cc2)C(=O)N[C@@H](CCN)C(=O)NCC(=O)N[C@@H](CC(N)=O)C(=O)N[C@@H](CO)C(=O)N[C@@H](C(O)C(N)=O)C(=O)N1` (stereo partly drawn) [Dodecylamine] (cyclo([X1][X2]S[X3][Dab]GNS)), the “fold of native compound's concentration at which completely inactive” value in [1] is on record as 64 fold. Further, the “effect of pretreatment on internalization of alkyne-OCF” value in [2] was “did not interfere with the internalization of the alkyne-OCF”. Further, the “percentage of water for the HPLC retention time” value (“percentage of water” for short) in series [3] came to 47%. In addition, in series [4], the “fold of native occidiofungin's inhibitory concentration at which inactive” value worked out at 64 fold.
Take “occidiofungin [Native occidiofungin, reference compound]”: the results for the MIC in [5], in [6] and in series [1] were 0.5 µg/mL, 0.5 µg/mL and 0.0625 µg/mL, respectively. Further, the “effect on actin polymerization (in words)” value with G-actin is “did not interfere with polymerization or depolymerization”. Moreover, the “effect on actin depolymerization (in words)” value with F-actin is “did not interfere with polymerization or depolymerization”. Besides, the “effect of pretreatment on internalization of alkyne-OCF” value in [2] is on record as “prevented internalization of alkyne-OCF”. Moreover, in series [3], the “percentage of water” value is given as 48%. The “saturation of binding ratio (ligand:actin monomer)” value in series [7] is listed as “more than 20 molecules of occidiofungin to one actin monomer”. Further, the Kd in series [7] was 1050 nM.
For the compound DL-dihydrosphingosine, the MIC came out at 16 µg/mL in series [5], 8 µg/mL in series [6] and 2 µg/mL in [1]. In the series with G-actin, the “effect on actin polymerization (in words)” value is reported as “did not interfere with polymerization or depolymerization”. In addition, the “effect on actin depolymerization (in words)” value in the series with F-actin is listed as “did not interfere with polymerization or depolymerization”. For the same compound, the “percentage of water” value in series [3] is reported as 33%.
On to Undecylamine, for which the MIC in series [5] was more than 32 µg/mL; in series [6], more than 8 µg/mL; in series [1], more than 4 µg/mL. Also, the “fold of native compound's concentration at which completely inactive” value in [1] was 64 fold. In addition, in [3], the “percentage of water” value is listed as 50%. Besides, the “fold of native occidiofungin's inhibitory concentration at which inactive” value in series [4] worked out at 64 fold.
phalloidin: the “effect on actin depolymerization (in words)” value in the series on F-actin is “completely blocked the depolymerization of F-actin”. The equilibrium dissociation constant (Kd) in series [7] is ~8 nM and 8 nM.

One may read the MIC as the least concentration at which growth counts as inhibited. The low end stands for greater potency, the high end for weaker potency. The Kd is the constant that tells how readily two partners part at equilibrium.
